In assay [1] the test system is normal liver cell line HL-7702. The assay is described as follows: MTT cytotoxicity assay, normal liver cells. It is filed as cell-based. To be noted: Homo sapiens, L02, 24 h treatment, mean ± SE. The method, then:
All the newly synthesized analogs were evaluated for their in vitro cytotoxicity against the hepatocellular carcinoma HepG2 cell line. Podo was utilized as a reference control in the current study. […] The N-phenyl triazinone derivative 9 was further investigated for its cytotoxic effects against normal liver cell line HL-7702.
MTT colorimetric assay was carried out to investigate the impact of the newly synthesized compounds 2–11 on hepatocellular carcinoma (HepG2) and normal liver cell line (HL-7702) cell lines. See Section 3.3.1 in Supplementary Material.
3.3.1. Cytotoxic activity evaluation
To measure the cytotoxic activity of the synthesized derivatives 2a-11 in hepatocel-lular carcinoma (HepG2) cell line (ATCC Cat No. HB-8065) as well as normal human liver cell line HL-7702 (ATCC Cat. No. 77402), cell viability assay was assessed using MTT assay method. Cells at density of 1 x 104 were seeded in a 96-well plate at 37 °C for 24 h under 5% CO2. […] The color inten-sity of the formazan product, which represents the growth condition of the cells, is quan-tified by using an ELISA plate reader (EXL 800, USA) at 570 nm absorbance. […]
(§1) Compounds 9, 10 and 11 were evaluated for their tubulin inhibitory activity levels according to the manufacturer’s instructions using # abcam Human Beta-tubulin simplestep […]
3.3.5. […] The samples were immediately analyzed using cell […]
On the technique in general: Formazan colour is commonly taken as a measure of viable cells.

For a further assay, the system named is HepG2 cells. The assay is described as follows: Cell cycle analysis by PI staining / FACS. It is filed as cell-based, human. To be noted: 48 h. The method, then:
It is well documented that exposure to microtubule targeting agents leads to the malformed mitotic spindle which eventually leads to cell cycle arrest at the G2/M phase and apoptosis induction. Thus, the effect of the selected candidate 9 on the cell cycle progression of the HepG2 cell line was examined by flow cytometry analysis (FACS). The HepG2 cell line was treated with the IC50 concentration of compound 9 for 48 h.
Cell cycle analysis in HepG2 cells was carried out by FACS analysis according to the manufacturer’s directions. See Section 3.3.3 in Supplementary Material.
Figure 3 Compound 9 induces G2/M phase disturbance in HepG2 cells. (A) HepG2 cells were treated with 1.38 μM of compound 9 for 48 h. […]
To measure the cytotoxic activity of the synthesized derivatives 2a-11 in hepatocel-lular carcinoma (HepG2) cell line (ATCC Cat No. HB-8065) as well as normal human liver cell line HL-7702 (ATCC Cat. No. 77402), cell viability assay was assessed using MTT assay method. […] The color inten-sity of the formazan product, which represents the growth condition of the cells, is quan-tified by using an ELISA plate reader (EXL 800, USA) at 570 nm absorbance. […]
as §1

One may read the IC50 as the midpoint of a concentration-inhibition curve. High values mean a need for much substance, low ones inhibition by little substance.

In turn, `COc1ccc(C2=N/C(=C\c3cc(OC)c(OC)c(OC)c3)C(=O)NN2c2ccccc2)cc1OC` [Compound 9, (Z)-3-(3,4-Dimethoxyphenyl)-2-Phenyl-5-(3,4,5-Trimethoxybenzylidene)-1,2-Dihydro-1,2,4-Triazin-6(5H)-one] showed an IC50 in assay [1] of 29.1 ± 2.03 µM. Also, the “G2/M cell population percentage” value in the assay on HepG2 cells (HepG2, 1.38 μM (IC50), control 13.28%) is recorded as 30.83%. Also, the “fold increase in G2/M cell population compared to untreated control” value with HepG2 cells (HepG2, IC50 concentration) is recorded as roughly 3 fold.

The values above are taken from article PMC9322052, “Synthesis and Biological Activity Screening of Newly Synthesized Trimethoxyphenyl-Based Analogues as Potential Anticancer Agents” (Molecules, 2022).
